# Measurements as given in US8497276B2, “Substituted indolo-piperidine compounds” (ArQule, Inc., priority 2009, dated 2013).
# Experiments:
# NCI-H1299 = assay: MTS Assay (cell growth inhibition), NCI-H1299; format: cell-based; conditions: NCI-H1299 cells, 72 hours with test compound; concentration not given
# Protocol: (§1) Cells were maintained at 37° C., 5% CO2 in DMEM media supplemented with 1% fetal bovine serum, penicillin/streptomycin and fungizone (Invitrogen). Cells were seeded into 96-well tissue culture plates at 3000 per well and cultured at 37° C. for 18 hours. Test compounds were dissolved and diluted to 300× in DMSO then diluted 1:40 in DMEM. Cells were incubated with test compounds for 72 hours followed by incubation with tetrazolium compound (3-(4,5-dimethylthiazol-2-yl)-5-(3-carboxymethoxyphenyl)-2-(4-sulfophenyl)-2H-tetrazolium, inner salt; MTS) and the electron coupling reagent, phenazine methosulfate (PMS) for 4 hours. […] The ability of compounds to inhibit cell growth in this assay is correlated with the reduction of dehydrogenase enzyme activity found in metabolically active cells. The measurement of the absorbance of the formazan was assessed using an ENVISION™ (Perkin Elmer) microplate reader at 492 nm. The calculated IC50 value is the concentration of the test compound that causes a 50% decrease in the absorbance.
# PACA-2 = assay: MTS Assay (cell growth inhibition), PACA-2; format: cell-based; conditions: PACA-2 cells, 72 hours with test compound; concentration not given
# Protocol: as §1
# MDA-MB 231 = assay: MTS Assay (cell growth inhibition), MDA-MB 231; format: cell-based; conditions: MDA-MB 231 cells, 72 hours with test compound; concentration not given
# Protocol: as §1
# Kato III = assay: MTS Assay (cell growth inhibition), Kato III; format: cell-based; conditions: Kato III cells, 72 hours with test compound; concentration not given
# Protocol: as §1
# DLD-1 = assay: MTS Assay (cell growth inhibition), DLD-1; format: cell-based; conditions: DLD-1 cells, 72 hours with test compound; concentration not given
# Protocol: as §1
# PC-3 = assay: MTS Assay (cell growth inhibition), PC-3; format: cell-based; conditions: PC-3 cells, 72 hours with test compound; concentration not given
# Protocol: as §1
# Tec kinase = target: T1, Tec kinase (Homo sapiens, UniProt P42680); assay: Tec Kinase Activity Assay; format: biochemical; conditions: 75 μM ATP, Pyk-2 substrate; compound concentration not given
# T1 sequence (P42680 1-631): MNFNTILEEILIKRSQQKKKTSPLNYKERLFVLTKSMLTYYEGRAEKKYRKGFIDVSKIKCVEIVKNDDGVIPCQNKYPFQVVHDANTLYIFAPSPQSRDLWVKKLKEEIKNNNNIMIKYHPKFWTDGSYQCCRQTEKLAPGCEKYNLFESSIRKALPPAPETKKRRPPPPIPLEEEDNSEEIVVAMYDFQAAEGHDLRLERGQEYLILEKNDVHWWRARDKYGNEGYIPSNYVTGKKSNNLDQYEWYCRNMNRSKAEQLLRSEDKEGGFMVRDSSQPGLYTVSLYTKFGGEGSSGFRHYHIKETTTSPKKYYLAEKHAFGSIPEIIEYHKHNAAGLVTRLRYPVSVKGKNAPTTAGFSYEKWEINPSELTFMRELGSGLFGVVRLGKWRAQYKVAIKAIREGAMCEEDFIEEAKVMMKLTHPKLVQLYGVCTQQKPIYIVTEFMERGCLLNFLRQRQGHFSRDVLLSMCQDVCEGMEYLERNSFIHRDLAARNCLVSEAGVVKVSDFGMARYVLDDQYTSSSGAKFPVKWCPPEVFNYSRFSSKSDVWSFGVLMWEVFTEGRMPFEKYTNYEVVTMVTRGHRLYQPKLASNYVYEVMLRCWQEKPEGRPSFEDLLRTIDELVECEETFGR
# Protocol: The disclosed compounds were assayed for their ability to inhibit the activity of Tec kinase. Nunc Maxisorb plates were coated with streptavidin by overnight incubation with 100 μl per well of 1 μg/ml Streptavidin in DPBS. Prior to the start of the experiment, the plates were washed with TBST (3×200 μl) and blocked for at least 1 hour by adding 150 μl of 5% BSA/TBST. The plates were then washed with TBST (3×200 μl/well) and left dry immediately before the capture step.
# The disclosed test compounds and controls (Staurosporine and Sutent) were prepared using the following assay buffer (50 mM Tris-HCl, 0.02 mg/ml BSA, 10 mM MgCl2, 0.1 mM Na3VO4, 1 mM EGTA, 75 μM ATP, 0.01% NP-40, 2 mM DTT in 10% glycerol/water) at 3× desired final concentration. 20 μl of the test compounds (or control) and 20 μl TEC (0.25 ng/μl) were rapidly added to a reaction plate. The plate was incubated for 30 minutes. 20 μl of Pyk-2 (0.5 ng/μl) was then added to the reaction plate. The plate was incubated at room temperature for two hours.
# 50 μl was transferred from the reaction plate to the streptavidin coated plate. The capture plate was incubated at room temperature for 30 minutes then washed with TBST 6 times. 100 μl/well of Cell Signaling anti-phospho tyrosine was added to the capture plate at a dilution of 1:3000 in 2% BSA/TBST. The plate was incubated for one hour at room temperature then washed with TBST 6 times. 100 μl/well of alkaline phosphatase tagged goat anti-mouse antibody was added to the capture plate at a dilution of 1:4000 in 2% BSA/TBST. The plate was incubated for one hour at room temperature then washed with TBST 6 times.
# The fluorescent readout was initiated by the addition of 100 μl/well of Attophos reagent (6 mg/10 ml) and the reading was done on the Perkin Elmer Envision system.
Biochemical IC50 (% inhibition) Tec (Tec kinase),Compound,MTS cell kill data (% inhibition) NCI-H1299 (NCI-H1299),MTS cell kill data (% inhibition) PACA-2 (PACA-2),MTS cell kill data (% inhibition) MDA-MB 231 (MDA-MB 231),MTS cell kill data (% inhibition) Kato III (Kato III),MTS cell kill data (% inhibition) DLD-1 (DLD-1),MTS cell kill data (% inhibition) PC-3 (PC-3)
C (C = <50% inhibition),"Fc1ccc(C2c3[nH]c4ccccc4c3CCN2c2ncnc3[nH]cnc23)cc1 (stereo not drawn) [Compound 5, 1-(4-fluorophenyl)-2-(9H-purin-6-yl)-2,3,4,9-tetrahydro-1H-beta-carboline]",B (B = 50-79% inhibition),C (C = <50% inhibition),A (A = 80-100% inhibition),A (A = 80-100% inhibition),C (C = <50% inhibition),A (A = 80-100% inhibition)
B (B = 50-79% inhibition),"Fc1ccc(C2c3[nH]c4ccccc4c3CCN2c2ncnc3[nH]ncc23)cc1 (stereo not drawn) [Compound 6, 1-(4-fluorophenyl)-2-(1H-pyrazolo[3,4-d]pyrimidin-4-yl)-2,3,4,9-tetrahydro-1H-beta-carboline]",B (B = 50-79% inhibition),B (B = 50-79% inhibition),A (A = 80-100% inhibition),A (A = 80-100% inhibition),B (B = 50-79% inhibition),C (C = <50% inhibition)
C (C = <50% inhibition),"Nc1nc(N2CCc3c([nH]c4ccccc34)C2c2cccc(C(F)(F)F)c2)c2cn[nH]c2n1 (stereo not drawn) [Compound 7, 4-{1-[3-(trifluoromethyl)phenyl]-1,3,4,9-tetrahydro-2H-beta-carbolin-2-yl}-1H-pyrazolo[3,4-d]pyrimidin-6-amine]",C (C = <50% inhibition),C (C = <50% inhibition),B (B = 50-79% inhibition),C (C = <50% inhibition),C (C = <50% inhibition),A (A = 80-100% inhibition)
C (C = <50% inhibition),"FC(F)(F)c1cccc(C2c3[nH]c4ccccc4c3CCN2c2ncnc3[nH]cnc23)c1 (stereo not drawn) [Compound 8, 2-(9H-purin-6-yl)-1-[3-(trifluoromethyl)phenyl]-2,3,4,9-tetrahydro-1H-beta-carboline]",A (A = 80-100% inhibition),B (B = 50-79% inhibition),A (A = 80-100% inhibition),A (A = 80-100% inhibition),A (A = 80-100% inhibition),A (A = 80-100% inhibition)
B (B = 50-79% inhibition),"FC(F)(F)c1cccc(C2c3[nH]c4ccccc4c3CCN2c2ncnc3[nH]ncc23)c1 (stereo not drawn) [Compound 9, 2-(1H-pyrazolo[3,4-d]pyrimidin-4-yl)-1-[3-(trifluoromethyl)phenyl]-2,3,4,9-tetrahydro-1H-beta-carboline]",B (B = 50-79% inhibition),B (B = 50-79% inhibition),B (B = 50-79% inhibition),B (B = 50-79% inhibition),B (B = 50-79% inhibition),C (C = <50% inhibition)
C (C = <50% inhibition),"Cc1cccc(C2c3[nH]c4ccccc4c3CCN2c2ncnc3[nH]ccc23)c1 (stereo not drawn) [Compound 10, 1-(3-methylphenyl)-2-(7H-pyrrolo[2,3-d]pyrimidin-4-yl)-2,3,4,9-tetrahydro-1H-beta-carboline]",B (B = 50-79% inhibition),B (B = 50-79% inhibition),C (C = <50% inhibition),B (B = 50-79% inhibition),B (B = 50-79% inhibition),C (C = <50% inhibition)

# The remaining lines, values behind:
Compound,Biochemical IC50 (% inhibition) Tec (Tec kinase),MTS cell kill data (% inhibition) NCI-H1299 (NCI-H1299),MTS cell kill data (% inhibition) PACA-2 (PACA-2),MTS cell kill data (% inhibition) MDA-MB 231 (MDA-MB 231),MTS cell kill data (% inhibition) Kato III (Kato III),MTS cell kill data (% inhibition) DLD-1 (DLD-1),MTS cell kill data (% inhibition) PC-3 (PC-3)
"Brc1n[nH]c2ncnc(N3CCc4c([nH]c5ccccc45)C3)c12 [Compound 1, 2-(3-bromo-1H-pyrazolo[3,4-d]pyrimidin-4-yl)-2,3,4,9-tetrahydro-1H-beta-carboline]",,B (B = 50-79% inhibition),B (B = 50-79% inhibition),C (C = <50% inhibition),A (A = 80-100% inhibition),B (B = 50-79% inhibition),C (C = <50% inhibition)
"Fc1c(Cl)cccc1C1c2[nH]c3ccccc3c2CCN1c1ncnc2[nH]ccc12 (stereo not drawn) [Compound 2, 1-(3-chloro-2-fluorophenyl)-2-(7H-pyrrolo[2,3-d]pyrimidin-4-yl)-2,3,4,9-tetrahydro-1H-beta-carboline]",C (C = <50% inhibition),A (A = 80-100% inhibition),A (A = 80-100% inhibition),A (A = 80-100% inhibition),A (A = 80-100% inhibition),A (A = 80-100% inhibition),A (A = 80-100% inhibition)
"Fc1c(Cl)cccc1C1c2[nH]c3ccccc3c2CCN1c1ncnc2[nH]cnc12 (stereo not drawn) [Compound 3, 1-(3-chloro-2-fluorophenyl)-2-(9H-purin-6-yl)-2,3,4,9-tetrahydro-1H-beta-carboline]",C (C = <50% inhibition),B (B = 50-79% inhibition),C (C = <50% inhibition),C (C = <50% inhibition),B (B = 50-79% inhibition),B (B = 50-79% inhibition),C (C = <50% inhibition)
"Fc1ccc(C2c3[nH]c4ccccc4c3CCN2c2ncnc3[nH]ccc23)cc1 (stereo not drawn) [Compound 4, 1-(4-fluorophenyl)-2-(7H-pyrrolo[2,3-d]pyrimidin-4-yl)-2,3,4,9-tetrahydro-1H-beta-carboline]",B (B = 50-79% inhibition),B (B = 50-79% inhibition),B (B = 50-79% inhibition),C (C = <50% inhibition),B (B = 50-79% inhibition),B (B = 50-79% inhibition),C (C = <50% inhibition)
